{
  "source": "patent US20220395522A1",
  "about": "“Methods of Use of Glucosamine for Increasing Nitrogen Retention” (TSI Bioproducts (Xuzhou) Co., Ltd., priority 2021, published 2022)",
  "origin": "cited, not measured here",
  "conditions": "cited from earlier work",
  "data": [
    {"smiles": "N[C@H]1C(O)O[C@H](CO)[C@@H](O)[C@@H]1O", "note": "(some centres unmarked) [glucosamine]", "values": [
      {"measurement": "Ingested glucosamine absorbed", "setting": "human digestive tract", "result": "10-12%"},
      {"measurement": "Ingested glucosamine metabolized by members of the intestinal microbiota before it is absorbed", "setting": "in vivo", "result": "more than 50%"}
    ]}
  ]
}
